Laboratory results reported in publication PMC4992173, “Divergent synthesis and identification of the cellular targets of deoxyelephantopins” (Nature Communications, 2016).

Experiments:
[1] = target: recombinant IKKβ (Homo sapiens, UniProt O14920); test: Labeling of recombinant IKK-β with probe 24c; assay type: binding; conditions: 10 µM 24c
[2] = target: T1, Protein transport protein Sec24C (SEC24C) (Homo sapiens, UniProt P53992); test: In situ competitive profiling in live MCF7 cells (LFQ): SEC24C; assay type: cell-based; conditions: 4 h, then 10 µM 24c, n=4
T1 construct: endogenous in cells; host or cells: MCF7
Text: (§1) In our efforts to determine the direct molecular targets of deoxyelephantopin we first performed a gel-based competitive in situ proteomic profiling assay[41] […] While the greater conformational flexibility of probe 24c could potentially lead to more promiscuous target engagement relatively to deoxyelephantopin, it was favoured based on the fact that an alkyne moiety appended to the rigid scaffold of deoxyelephantopin may hinder some of its interactions. MCF7 cells were pretreated with various concentrations of deoxyelephantopin for 4 h, harvested, lysed and the lysates were treated with the fluorogenic probe 24c-Cy3 (10 μM; Supplementary Fig. 10). […] Furthermore, cells were pretreated with 20 μM concentration of deoxyelephantopin or 24c and the proteomic profiles were compared (Fig. 6b, Supplementary Fig. 11). Multiple bands were detected that were equally competed by both DEP and 24c, thus again confirming that 24c can be used as an acceptable clickable analogue of deoxyelephantopin in pulldown assays. Having established the optimal labelling conditions by SDS–PAGE, we next carried out a mass spectrometry-based competitive profiling assay[42] coupled with the method of stable isotope labelling of amino acids in culture (SILAC)[43]. […]
(§2) Figure 6 Proteome-wide identification of deoxyelephantopin targets. […] Quantification was performed using label-free quantification (LFQ) method (n=4). […]

[3] = target: T2, Nucleoporin p54 (NUP54) (Homo sapiens, UniProt Q7Z3B4); test: In situ competitive profiling in live MCF7 cells (LFQ): NUP54; assay type: cell-based; conditions: protein NUP54, 4 h, then 10 µM 24c, n=4
T2 construct: endogenous in cells; host or cells: MCF7
Text: as §1, §2

[4] = tested on: tumour growth and metastasis; set-up: method as in PMID 20105176; conditions: murine orthotopic breast cancer model, compared with paclitaxel; cited from earlier work
[5] = target: T3, Heme oxygenase 2 (HMOX2) (Homo sapiens, UniProt P30519); test: In situ competitive profiling in live MCF7 cells (LFQ): HMOX2; assay type: cell-based; conditions: protein HMOX2, 4 h, then 10 µM 24c, n=4
T3 construct: endogenous in cells; host or cells: MCF7
Text: as §1, §2

T1 sequence (P53992 whole entry): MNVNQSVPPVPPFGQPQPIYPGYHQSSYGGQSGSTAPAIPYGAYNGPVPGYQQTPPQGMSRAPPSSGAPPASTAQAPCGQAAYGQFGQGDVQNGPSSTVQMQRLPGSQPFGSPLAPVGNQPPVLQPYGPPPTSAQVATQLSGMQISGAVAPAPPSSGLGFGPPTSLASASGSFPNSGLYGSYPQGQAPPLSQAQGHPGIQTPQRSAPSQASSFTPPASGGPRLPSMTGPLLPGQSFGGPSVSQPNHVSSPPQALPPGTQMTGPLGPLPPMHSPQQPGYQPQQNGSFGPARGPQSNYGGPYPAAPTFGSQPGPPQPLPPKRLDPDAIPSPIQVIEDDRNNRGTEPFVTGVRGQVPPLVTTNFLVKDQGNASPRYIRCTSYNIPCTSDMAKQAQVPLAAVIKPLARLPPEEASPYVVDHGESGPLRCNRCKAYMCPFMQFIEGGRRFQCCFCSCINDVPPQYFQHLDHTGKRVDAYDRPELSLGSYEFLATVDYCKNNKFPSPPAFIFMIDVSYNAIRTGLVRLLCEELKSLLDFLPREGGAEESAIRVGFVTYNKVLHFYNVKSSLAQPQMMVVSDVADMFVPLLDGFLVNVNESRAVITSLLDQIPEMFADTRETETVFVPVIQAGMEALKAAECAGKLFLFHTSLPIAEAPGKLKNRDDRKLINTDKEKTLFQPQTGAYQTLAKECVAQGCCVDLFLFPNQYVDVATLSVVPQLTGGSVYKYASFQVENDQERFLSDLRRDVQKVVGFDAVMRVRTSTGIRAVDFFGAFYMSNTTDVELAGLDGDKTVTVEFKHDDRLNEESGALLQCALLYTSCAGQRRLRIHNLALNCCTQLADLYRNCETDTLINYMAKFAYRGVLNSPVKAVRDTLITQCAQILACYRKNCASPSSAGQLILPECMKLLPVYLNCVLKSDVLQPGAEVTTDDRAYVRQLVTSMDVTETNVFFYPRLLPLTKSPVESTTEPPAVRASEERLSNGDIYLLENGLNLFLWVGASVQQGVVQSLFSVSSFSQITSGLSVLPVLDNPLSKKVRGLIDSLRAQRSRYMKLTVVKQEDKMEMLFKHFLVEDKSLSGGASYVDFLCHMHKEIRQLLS
recombinant IKKβ, sequence (O14920 whole entry): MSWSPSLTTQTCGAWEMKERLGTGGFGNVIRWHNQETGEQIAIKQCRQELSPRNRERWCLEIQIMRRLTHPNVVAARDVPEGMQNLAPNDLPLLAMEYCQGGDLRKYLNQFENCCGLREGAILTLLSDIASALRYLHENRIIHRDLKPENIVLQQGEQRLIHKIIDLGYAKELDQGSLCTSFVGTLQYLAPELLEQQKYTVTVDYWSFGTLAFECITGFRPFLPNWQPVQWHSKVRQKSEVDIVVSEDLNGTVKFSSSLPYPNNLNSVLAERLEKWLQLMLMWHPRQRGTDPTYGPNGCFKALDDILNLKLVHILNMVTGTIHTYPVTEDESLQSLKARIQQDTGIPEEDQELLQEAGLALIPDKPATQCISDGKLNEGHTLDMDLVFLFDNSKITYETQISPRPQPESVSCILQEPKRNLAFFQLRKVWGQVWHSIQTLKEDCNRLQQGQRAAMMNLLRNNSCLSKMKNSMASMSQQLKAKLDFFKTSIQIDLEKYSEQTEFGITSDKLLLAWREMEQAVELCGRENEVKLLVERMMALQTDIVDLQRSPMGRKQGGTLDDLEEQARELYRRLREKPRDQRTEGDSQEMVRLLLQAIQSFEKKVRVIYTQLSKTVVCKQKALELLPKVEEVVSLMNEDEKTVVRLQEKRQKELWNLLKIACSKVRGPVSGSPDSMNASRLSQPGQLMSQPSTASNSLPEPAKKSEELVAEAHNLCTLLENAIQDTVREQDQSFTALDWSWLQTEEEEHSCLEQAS
T3 sequence (P30519 whole entry): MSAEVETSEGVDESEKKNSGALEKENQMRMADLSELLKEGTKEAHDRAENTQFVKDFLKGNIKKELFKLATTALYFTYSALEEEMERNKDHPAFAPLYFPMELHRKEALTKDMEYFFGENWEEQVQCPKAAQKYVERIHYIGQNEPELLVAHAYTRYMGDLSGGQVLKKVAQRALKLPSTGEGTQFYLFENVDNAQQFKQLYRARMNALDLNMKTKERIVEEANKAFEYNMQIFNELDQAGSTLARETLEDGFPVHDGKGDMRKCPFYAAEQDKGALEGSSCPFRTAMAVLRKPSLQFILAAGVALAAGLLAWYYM
T2 sequence (Q7Z3B4 whole entry): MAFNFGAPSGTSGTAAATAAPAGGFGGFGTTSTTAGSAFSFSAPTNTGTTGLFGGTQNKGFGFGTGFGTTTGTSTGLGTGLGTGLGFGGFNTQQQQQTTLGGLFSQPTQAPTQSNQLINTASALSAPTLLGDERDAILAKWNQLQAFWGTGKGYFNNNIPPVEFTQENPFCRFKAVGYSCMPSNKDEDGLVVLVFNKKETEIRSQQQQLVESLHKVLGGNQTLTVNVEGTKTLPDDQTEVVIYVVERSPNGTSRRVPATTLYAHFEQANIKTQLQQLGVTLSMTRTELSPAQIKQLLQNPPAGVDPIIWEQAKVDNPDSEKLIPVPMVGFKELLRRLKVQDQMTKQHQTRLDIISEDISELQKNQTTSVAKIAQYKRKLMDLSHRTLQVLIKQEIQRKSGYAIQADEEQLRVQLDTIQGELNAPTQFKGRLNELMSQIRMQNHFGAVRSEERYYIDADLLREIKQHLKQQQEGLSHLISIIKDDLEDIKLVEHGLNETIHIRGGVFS

With `C#CCC[C@H](OC(=O)C(=C)C)[C@H]1C(=C)C(=O)O[C@@H]1c1ccccc1` [24c] the “covalent interaction with recombinant IKKβ” value [1] was “no evidence of covalent interaction”.

In the case of `C=C(C)C(=O)O[C@H]1CC2=C[C@@H](C/C(C)=C/[C@H]3OC(=O)C(=C)[C@H]13)OC2=O` [deoxyelephantopin], the “LFQ ratio 20 µM Deoxyelephantopin/DMSO with 24c” value [2] is given as 0.18, the “LFQ ratio 20 µM Deoxyelephantopin/DMSO with 24c” value [3] is given as 0.24 and the “suppression of tumour growth and metastasis” value [4] is given as “more effective than paclitaxel”. For the same molecule, the “LFQ ratio 20 µM Deoxyelephantopin/DMSO with 24c” value [5] was 0.14.
